Assay [1] deals with rat CYP17 lyase (Rattus norvegicus (Rat), UniProt P11715). Put plainly: rat CYP 17 Lyase model, rat testes microsomes as the source. It is filed as biochemical. Conditions: for inhibition at 0.1 µM: 100 nM compound, read-out: rCYP17 Lyase % Inh @ 100 nM; for IC50: rat testes microsomes, substrate 0.5 μM, read-out: Lyase IC 50 nM Human/Rat (Rat). The procedure: For routine screening, the assay was set up with 16 μg of enzyme in 50 μL reaction volume. 17α-hydroxy pregnenolone [21-3H] was added to a final concentration of 0.25 μM. NADPH is used at a final concentration of 4.2 mM. Total reaction volume was made up to 50 μL with 50 mM Phosphate buffer pH 7.5. The reaction mixture was incubated at room temperature for 90 minutes with gentle shaking. The reaction was stopped by the addition of 100 μL of buffer. 500 μL of 5% freshly prepared activated charcoal was added to the solution and mixed well by vortexing. The samples were centrifuged at 17568×g for 5 minutes. (14000 rpm). The supernatant was carefully transferred to fresh tube and 1.3 mL of scintillation fluid was added, mixed by vortexing.
Chain of rat CYP17 lyase (P11715 whole entry): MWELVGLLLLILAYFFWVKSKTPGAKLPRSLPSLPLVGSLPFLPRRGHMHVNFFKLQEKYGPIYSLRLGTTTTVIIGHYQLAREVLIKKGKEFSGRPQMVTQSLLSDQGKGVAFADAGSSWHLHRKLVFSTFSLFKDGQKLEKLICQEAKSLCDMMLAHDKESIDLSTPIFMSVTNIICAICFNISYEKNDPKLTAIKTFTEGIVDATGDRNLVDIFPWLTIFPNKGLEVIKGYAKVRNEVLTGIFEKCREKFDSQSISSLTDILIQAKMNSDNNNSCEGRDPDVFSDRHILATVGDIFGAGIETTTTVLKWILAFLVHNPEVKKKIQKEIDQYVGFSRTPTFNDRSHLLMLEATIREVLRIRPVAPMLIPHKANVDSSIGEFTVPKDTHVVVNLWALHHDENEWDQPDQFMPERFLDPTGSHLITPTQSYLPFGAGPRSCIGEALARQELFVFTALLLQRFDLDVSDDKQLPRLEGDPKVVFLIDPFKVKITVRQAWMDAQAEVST
The radioactivity was measured in a 1450 MicroBeta TriLux™ scintillation counter from Wallac-Perkin Elmer®, USA. The measurements were carried out in 2.0 mL Eppendorforf™ tubes. Each tube was counted for 1 minute. The amount of tritiated acetic acid released is proportional to the lyase activity. Percent lyase activity in presence of inhibitor was calculated using the formula given below.
[formula] • Sample: Enzyme reaction in presence of inhibitor. • Positive control: Enzyme reaction without inhibitor but containing DMSO at 1% final concentration. • Blank-Contains all reagents except enzyme. % Inhibition=100%−% Lyase activity
For IC50 determination, the % inhibition was plotted as a function of inhibitor concentration. The data was fitted to sigmoidal equation using Graphpad Prism® software IV to generate IC50 values.
For the rat CYP 17 Lyase Model:
The same procedure described above was used but using rat testes microsomes as the source and with a substrate concentration of 0.5 μM.

The target in assay [2] is recombinant human CYP17 enzyme (Homo sapiens (Human), UniProt P05093). Put plainly: Cytochrome P450, 17-20 lyase (CYP17-lyase) assay, tritiated acetic acid release from 17-α-hydroxy pregnenolone [21-3H]. The assay is classed as biochemical. Conditions: human CYP17, substrate 0.25 μM. In a few lines:
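Membranes of cells expressing human CYP17 incubated 90 min at room temperature with [21-3H]17α-hydroxypregnenolone and 4.2 mM NADPH in 50 mM phosphate pH 7.5. Released tritiated acetic acid separated from steroids by charcoal and counted by scintillation; IC50 from sigmoidal fit of % inhibition.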

Where [3] appears, read: read-out: Lyase IC 50 nM Human/Rat (Human).

The record followed here is patent publication USRE45173E1, “Inhibitors of CYP 17” (Novartis AG, priority 2009, dated 2014).

Read-outs that look alike come from different tables or passages of the source.

Chain of recombinant human CYP17 enzyme (P05093 whole entry): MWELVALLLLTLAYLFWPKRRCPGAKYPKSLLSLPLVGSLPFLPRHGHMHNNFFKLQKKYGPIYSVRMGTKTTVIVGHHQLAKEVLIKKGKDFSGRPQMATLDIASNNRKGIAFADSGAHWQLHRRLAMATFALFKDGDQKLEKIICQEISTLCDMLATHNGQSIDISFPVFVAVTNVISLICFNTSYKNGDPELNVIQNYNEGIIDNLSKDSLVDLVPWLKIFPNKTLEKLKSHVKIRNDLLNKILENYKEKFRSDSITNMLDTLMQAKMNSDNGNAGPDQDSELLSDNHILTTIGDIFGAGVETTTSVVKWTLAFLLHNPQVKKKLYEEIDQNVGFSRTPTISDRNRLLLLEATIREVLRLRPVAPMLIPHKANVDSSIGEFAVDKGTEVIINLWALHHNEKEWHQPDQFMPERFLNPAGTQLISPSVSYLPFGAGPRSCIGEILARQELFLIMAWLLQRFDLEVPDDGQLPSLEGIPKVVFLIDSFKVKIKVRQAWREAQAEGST

Regarding `Cc1ccncc1N1CCN(c2ccc3nc(Cl)cc(C)c3c2)C1=O` [Example 21A, 1-(2-Chloro-4-methyl-quinolin-6-yl)-3-(4-methyl-pyridin-3-yl)-imidazolidin-2-one], in assay [1], the inhibition at 0.1 µM is 98% and the IC50 was 5 nM.
As to `Cc1ccncc1N1CCN(c2ccc3[nH]c(=O)cc(C)c3c2)C1=O` [Example 22A, 4-Methyl-6-[3-(4-methyl-pyridin-3-yl)-2-oxo-imidazolodin-1yl]1H-quinolin-2-one], in assay [1], the inhibition at 0.1 µM amounted to 85% and the IC50 worked out at 24 nM.
Turning to `O=C1N(c2cncc(F)c2)CCN1c1ccc2ccccc2c1` [Example 81A, 1-(5-Fluoro-pyridin-3-yl)-3-naphthalen-2-yl-imidazolidin-2-one], the inhibition at 0.1 µM in assay [1] was 82%.
Same read-out and setting: next, `COc1ccc2cc(N3CCN(c4cnccc4C)C3=O)ccc2c1` [Example 25A, 1-(6-Methoxy-naphthalen-2-yl)-3-(4-methyl-pyridin-3-yl)-imidazolidin-2-one]: 89%.
Take `Cc1c(N2CCN(c3cccnc3)C2=O)sc2ccc(F)cc12` [Example 6A, 1-(5-Fluoro-3-methyl-benzo[b]thiophen-2-yl)-3-pyridin-3-yl-imidazolidin-2-one]: in assay [1], the inhibition at 0.1 µM came out at 51% and the IC50 was determined as 157 nM.
The corresponding values for `Cc1ccncc1N1CCN(c2ccc3ccccc3n2)C1=O` [Example 23A, 1-(4-Methyl-pyridin-3-yl)-3-quinolin-2-yl-imidazolidin-2-one] are 85% and 20 nM.
Regarding `Cc1ccncc1N1CCN(c2ccc(F)nc2)C1=O` [Example 30A, 1-(6-Fluoro-pyridin-3-yl)-3-(4-methyl-pyridin-3-yl)-imidazolidin-2-one], the inhibition at 0.1 µM in assay [1] worked out at 76%.
Take `CCN1C(=O)CCc2cc(N3CCN(c4cnccc4C)C3=O)ccc21` [Example 17A, 1-Ethyl-6-[3-(4-methyl-pyridin-3-yl)-2-oxo-imidazolidin-1-yl]-3,4-dihydro-1H-quinolin-2-one]: in assay [1], the inhibition at 0.1 µM stood at 83% and the IC50 came to 21 nM.
Take `CC(O)c1ccncc1N1CCN(c2ccc3ncsc3c2)C1=O` (centres unmarked) [Example 195A, 1-Benzothiazol-6-yl-3-[4-(1-hydroxyethyl)-pyridin-3-yl]-imidazolidin-2-one]: the inhibition at 0.1 µM in assay [1] was 8%.
In the case of `CCn1c(=O)cc(C)c2cc(N3CCN(c4cnccc4C)C3=O)ccc21` [Example 20A, 1-Ethyl-4-methyl-6-[3-(4-methyl-pyridin-3-yl)-2-oxo-imidazolidin-1-yl]-1-1H-quinolin-2-one], in assay [1], the inhibition at 0.1 µM turned out to be 69% and the IC50 worked out at 56 nM.
Taken in the same sequence, the figures for `Cc1cc(Cl)nc2ccc(N3CCN(c4cccnc4)C3=O)cc12` [Example 11A, 1-(2-Chloro-4-methyl-quinolin-6-yl)-3-pyridin-3-yl-imidazolidin-2-one] were 59% and 97 nM.
The corresponding values for `O=C1N(c2cccnc2)CCN1c1ccc2sccc2c1` [Example 7A, 1-Benzo[b]thiophen-5-yl-3-pyridin-3-yl-imidazolidin-2-one] are 87% and 16 nM.
On to `O=C1N(c2cncc(Cl)c2)CCN1c1ccc2ccccc2c1` [Example 80A], for which the inhibition at 0.1 µM in assay [1] worked out at 57%.
Still for that read-out and setting: next, `COc1ccc2cc(N3CCN(c4cccnc4)C3=O)ccc2c1` [Example 3A, 1-(6-Methoxy-naphthalen-2-yl)-3-pyridin-3-O-imidazolidin-2-one]: 31%.
In the case of `CCn1ccc2cc(N3CCN(c4cccnc4)C3=O)ccc21` [Example 2A, 1-(1-Ethyl-1H-indol-5-yl)-3-pyridin-3-yl-imidazolidin-2-one], the inhibition at 0.1 µM in assay [1] was determined as 23%.
As for `Cc1ccncc1N1CCN(c2ccc(-c3ccccc3)cc2)C1=O` [Example 19A, 1-Biphenyl-4-O-3-(4-methyl-pyridin-3-yl)-imidazolidin-2-one], in assay [1], the inhibition at 0.1 µM turned out to be 91% and the IC50 stood at 11 nM.
Take `O=C1N(c2cccnc2)CCCN1c1ccc2sccc2c1` [Example 13A, 1-Benzo[b]thiophen-5-yl-3-pyridin-3-yl-tetrahydro-pyrimidin-2-one]: the inhibition at 0.1 µM in assay [1] came out at 9%.
`Cc1ccncc1N1CCN(c2ccc3cccnc3c2)C1=O` [Example 162A, 1-(4-methylpyridin-3-yl)-3-(quinolin-7-yl)imidazolidin-2-one]: the IC50 in assay [2] (setting [3]) worked out at 317 nM.
Same read-out and setting: the same measure for `Cc1ccncc1N1CCN(c2ccc3c(ccn3C)c2)C1=O` [Example 134A, 1-(1-Methyl-1H-indol-5-yl)-3-(4-methyl-pyridin-3-yl)-imidazolidin-2-one]: 950 nM; for `Cc1ccncc1N1CCN(c2ccc3[nH]cnc3c2)C1=O` [Example 108A, 1-(1H-Benzoimidazol-5-yl)-3-(4-methyl-pyridin-3-yl)-imidazolidin-2-one]: 363 nM.
For `Cc1ccncc1N1CCN(c2ccnc(C(F)(F)F)c2)C1=O` [Example 148A, 1-(4-Methyl-pyridin-3-yl)-3-(2-trifluoromethyl-pyridin-4-yl)-imidazolidin-2-one], the IC50 in assay [2] (setting [3]) is 25 nM.
For `Cc1ccncc1N1CCN(c2ccc(C(F)(F)F)cc2)C1=O` [Example 50A], the IC50 in assay [2] (setting [3]) stood at 51 nM.
For the compound `Cc1ccncc1N1CCN(c2ccc3onc(C)c3c2)C1=O` [Example 101A, 1-(3-Methyl-benzo[d]isoxazol-5-yl)-3-(4-methyl-pyridin-3-yl)-imidazolidin-2-one], the IC50 in assay [2] (setting [3]) came out at 46 nM.
Consider `CC(=O)Nc1cc(N2CCN(c3cnccc3C)C2=O)ccn1` [Example 96A], for which the IC50 in assay [2] (read-out: Lyase IC 50 Human/Rat (Human)) was more than 10000 nM.
Take `O=C1N(c2ccc3ncsc3c2)CCN1c1cnccc1CN1CCCC1` [Example 176A, 1-Benzothiazol-6-yl-3-(4-pyrrolidin-1-ylmethyl-pyridin-3-yl)-imidazolidin-2-one]: in assay [2] (setting [3]), the IC50 is 39 nM.
Turning to `Cc1ccncc1N1CCN(c2ccc3c(cnn3C)c2)C1=O` [Example 114A, 1-(1-Methyl-1H-indazol-5-yl)-3-(4-methyl-pyridin-3-yl)-imidazolidin-2-one], the IC50 in assay [2] (setting [3]) was determined as 24 nM.
Same read-out and setting: the same measure for `Cc1ccncc1N1CCN(c2ccc(F)c(F)c2)C1=O` [Example 45A, 1-(3,4-Difluoro-phenyl)-3-(4-methyl-pyridin-3-yl)-imidazolidin-2-one]: 27 nM.
On the same count and under the same terms, next, `O=C1N(c2ccc3ncsc3c2)CCN1c1cnccc1CO` [Example 126A, 1-Benzothiazol-6-yl-3-(4-hydroxymethyl-pyridin-3-yl)-imidazolidin-2-one]: 25 nM; `Cc1ccncc1N1CCN(c2ccc3oncc3c2)C1=O` [Example 113A, 1-Benzo[d]isoxazol-5-yl-3-(4-methyl-pyridin-3-yl)-imidazolidin-2-one]: 230 nM.
On the same count and under the same terms, the same measure for `Cc1ccncc1N1CCN(c2ccc3c(C(F)(F)F)n[nH]c3c2)C1=O` [Example 160A, 1-(4-methylpyridin-3-yl)-3-(3-(trifluoromethyl)-1H-indazol-6-yl)imidazolidin-2-one]: 34 nM; for `Cc1ccncc1N1CCN(c2ccc3c(c2)OC(F)(F)O3)C1=O` [Example 64A, 1-(2,2-Difluoro-benzo[1,3]dioxol-5-yl)-3-(4-methyl-pyridin-3-yl)-imidazolidin-2-one]: 35 nM; for `Cn1cncc1N1CCN(c2ccc3ncsc3c2)C1=O` [Example 188A, 3-Benzothiazol-6-yl-3′-methyl-4,5-dihydro-3H,3′H-[1,4]biimidazolyl-2-one]: 195 nM.
